Work on `Clc1ccc2c(c1)Nc1ccccc1S2` yielded a solubility (mole fraction) (in 2-butanone, 283.15 K) of 0.0337, a solubility (mole fraction) (in 2-butanone, 285.65 K) of 0.0356 and a solubility (mole fraction) (in 2-butanone, 288.15 K) of 0.0378. It also gave a solubility (mole fraction) (in 2-butanone, 290.65 K) of 0.0402, a solubility (mole fraction) (in 2-butanone, 293.15 K) of 0.0427 and a solubility (mole fraction) (in 2-butanone, 295.65 K) of 0.0455. The solubility (mole fraction) (in 2-butanone, 298.15 K) was 0.0484, the solubility (mole fraction) (in 2-butanone, 300.65 K) was 0.0513 and the solubility (mole fraction) (in 2-butanone, 303.15 K) was 0.0546. The solubility (mole fraction) (in 2-butanone, 305.65 K) was 0.0578, the solubility (mole fraction) (in 2-butanone, 308.15 K) was 0.0612 and the solubility (mole fraction) (in 2-butanone, 310.65 K) was 0.0646. It also gave a solubility (mole fraction) (in 2-butanone, 313.15 K) of 0.0683, a solubility (mole fraction) (in 2-butanone, 315.65 K) of 0.0727 and a solubility (mole fraction) (in 2-butanone, 318.15 K) of 0.0771. It also gave a solubility (mole fraction) (in acetone, 283.15 K) of 0.0268, a solubility (mole fraction) (in acetone, 285.65 K) of 0.0281 and a solubility (mole fraction) (in acetone, 288.15 K) of 0.03. For the same molecule, the solubility (mole fraction) (in acetone, 290.65 K) was 0.0317, the solubility (mole fraction) (in acetone, 293.15 K) was 0.0336 and the solubility (mole fraction) (in acetone, 295.65 K) was 0.0356. For the same molecule, the solubility (mole fraction) (in acetone, 298.15 K) was 0.0378, the solubility (mole fraction) (in acetone, 300.65 K) was 0.0399 and the solubility (mole fraction) (in acetone, 303.15 K) was 0.0421. It also gave a solubility (mole fraction) (in acetone, 305.65 K) of 0.0443, a solubility (mole fraction) (in acetone, 308.15 K) of 0.0469 and a solubility (mole fraction) (in acetone, 310.65 K) of 0.0493. It also gave a solubility (mole fraction) (in acetone, 313.15 K) of 0.0518, a solubility (mole fraction) (in acetone, 315.65 K) of 0.0544 and a solubility (mole fraction) (in acetone, 318.15 K) of 0.0575. It also gave a solubility (mole fraction) (in acetonitrile, 283.15 K) of 0.00354, a solubility (mole fraction) (in acetonitrile, 285.65 K) of 0.00378 and a solubility (mole fraction) (in acetonitrile, 288.15 K) of 0.00406. It also gave a solubility (mole fraction) (in acetonitrile, 290.65 K) of 0.00435, a solubility (mole fraction) (in acetonitrile, 293.15 K) of 0.00467 and a solubility (mole fraction) (in acetonitrile, 295.65 K) of 0.00498. For the same molecule, the solubility (mole fraction) (in acetonitrile, 298.15 K) was 0.00532, the solubility (mole fraction) (in acetonitrile, 300.65 K) was 0.00564 and the solubility (mole fraction) (in acetonitrile, 303.15 K) was 0.006. It also gave a solubility (mole fraction) (in acetonitrile, 305.65 K) of 0.00633, a solubility (mole fraction) (in acetonitrile, 308.15 K) of 0.00672 and a solubility (mole fraction) (in acetonitrile, 310.65 K) of 0.0071. The solubility (mole fraction) (in acetonitrile, 313.15 K) was 0.00756, the solubility (mole fraction) (in acetonitrile, 315.65 K) was 0.00795 and the solubility (mole fraction) (in acetonitrile, 318.15 K) was 0.00837. It also gave a solubility (mole fraction) (in ethanol, 283.15 K) of 0.00431, a solubility (mole fraction) (in ethanol, 285.65 K) of 0.00446 and a solubility (mole fraction) (in ethanol, 288.15 K) of 0.00465. It also gave a solubility (mole fraction) (in ethanol, 290.65 K) of 0.00486, a solubility (mole fraction) (in ethanol, 293.15 K) of 0.00505 and a solubility (mole fraction) (in ethanol, 295.65 K) of 0.00525. The solubility (mole fraction) (in ethanol, 298.15 K) was 0.00546, the solubility (mole fraction) (in ethanol, 300.65 K) was 0.00569 and the solubility (mole fraction) (in ethanol, 303.15 K) was 0.00592. The solubility (mole fraction) (in ethanol, 305.65 K) was 0.00617, the solubility (mole fraction) (in ethanol, 308.15 K) was 0.00641 and the solubility (mole fraction) (in ethanol, 310.65 K) was 0.00667. The solubility (mole fraction) (in ethanol, 313.15 K) was 0.00695, the solubility (mole fraction) (in ethanol, 315.65 K) was 0.00723 and the solubility (mole fraction) (in ethanol, 318.15 K) was 0.00756. For the same molecule, the solubility (mole fraction) (in ethyl acetate, 283.15 K) was 0.0156, the solubility (mole fraction) (in ethyl acetate, 285.65 K) was 0.0173 and the solubility (mole fraction) (in ethyl acetate, 288.15 K) was 0.0194. The solubility (mole fraction) (in ethyl acetate, 290.65 K) was 0.0216, the solubility (mole fraction) (in ethyl acetate, 293.15 K) was 0.024 and the solubility (mole fraction) (in ethyl acetate, 295.65 K) was 0.0265. For the same molecule, the solubility (mole fraction) (in ethyl acetate, 298.15 K) was 0.0291, the solubility (mole fraction) (in ethyl acetate, 300.65 K) was 0.0323 and the solubility (mole fraction) (in ethyl acetate, 303.15 K) was 0.0357. For the same molecule, the solubility (mole fraction) (in ethyl acetate, 305.65 K) was 0.0397, the solubility (mole fraction) (in ethyl acetate, 308.15 K) was 0.0435 and the solubility (mole fraction) (in ethyl acetate, 310.65 K) was 0.0484. For the same molecule, the solubility (mole fraction) (in ethyl acetate, 313.15 K) was 0.0528, the solubility (mole fraction) (in ethyl acetate, 315.65 K) was 0.0575 and the solubility (mole fraction) (in ethyl acetate, 318.15 K) was 0.0625. The solubility (mole fraction) (in isopropanol, 283.15 K) was 0.0038, the solubility (mole fraction) (in isopropanol, 285.65 K) was 0.00397 and the solubility (mole fraction) (in isopropanol, 288.15 K) was 0.00415. It also gave a solubility (mole fraction) (in isopropanol, 290.65 K) of 0.00433, a solubility (mole fraction) (in isopropanol, 293.15 K) of 0.00454 and a solubility (mole fraction) (in isopropanol, 295.65 K) of 0.00473. For the same molecule, the solubility (mole fraction) (in isopropanol, 298.15 K) was 0.00493, the solubility (mole fraction) (in isopropanol, 300.65 K) was 0.00513 and the solubility (mole fraction) (in isopropanol, 303.15 K) was 0.00536. For the same molecule, the solubility (mole fraction) (in isopropanol, 305.65 K) was 0.00556, the solubility (mole fraction) (in isopropanol, 308.15 K) was 0.0058 and the solubility (mole fraction) (in isopropanol, 310.65 K) was 0.00605. For the same molecule, the solubility (mole fraction) (in isopropanol, 313.15 K) was 0.0063, the solubility (mole fraction) (in isopropanol, 315.65 K) was 0.00657 and the solubility (mole fraction) (in isopropanol, 318.15 K) was 0.00687. The solubility (mole fraction) (in methanol, 283.15 K) was 0.00465, the solubility (mole fraction) (in methanol, 285.65 K) was 0.00483 and the solubility (mole fraction) (in methanol, 288.15 K) was 0.00502. The solubility (mole fraction) (in methanol, 290.65 K) was 0.00525, the solubility (mole fraction) (in methanol, 293.15 K) was 0.00545 and the solubility (mole fraction) (in methanol, 295.65 K) was 0.0057. For the same molecule, the solubility (mole fraction) (in methanol, 298.15 K) was 0.00594, the solubility (mole fraction) (in methanol, 300.65 K) was 0.0062 and the solubility (mole fraction) (in methanol, 303.15 K) was 0.00647. The solubility (mole fraction) (in methanol, 305.65 K) was 0.00673, the solubility (mole fraction) (in methanol, 308.15 K) was 0.00701 and the solubility (mole fraction) (in methanol, 310.65 K) was 0.00728. It also gave a solubility (mole fraction) (in methanol, 313.15 K) of 0.00758, a solubility (mole fraction) (in methanol, 315.65 K) of 0.00786 and a solubility (mole fraction) (in methanol, 318.15 K) of 0.00819. It also gave a solubility (mole fraction) (in n-butanol, 283.15 K) of 0.00328, a solubility (mole fraction) (in n-butanol, 285.65 K) of 0.00344 and a solubility (mole fraction) (in n-butanol, 288.15 K) of 0.00361. For the same molecule, the solubility (mole fraction) (in n-butanol, 290.65 K) was 0.00381, the solubility (mole fraction) (in n-butanol, 293.15 K) was 0.00401 and the solubility (mole fraction) (in n-butanol, 295.65 K) was 0.00422. The solubility (mole fraction) (in n-butanol, 298.15 K) was 0.00445, the solubility (mole fraction) (in n-butanol, 300.65 K) was 0.00468 and the solubility (mole fraction) (in n-butanol, 303.15 K) was 0.00492. It also gave a solubility (mole fraction) (in n-butanol, 305.65 K) of 0.00518, a solubility (mole fraction) (in n-butanol, 308.15 K) of 0.00543 and a solubility (mole fraction) (in n-butanol, 310.65 K) of 0.0057. For the same molecule, the solubility (mole fraction) (in n-butanol, 313.15 K) was 0.00596, the solubility (mole fraction) (in n-butanol, 315.65 K) was 0.00624 and the solubility (mole fraction) (in n-butanol, 318.15 K) was 0.00653. It also gave a solubility (mole fraction) (in n-propanol, 283.15 K) of 0.0041, a solubility (mole fraction) (in n-propanol, 285.65 K) of 0.00426 and a solubility (mole fraction) (in n-propanol, 288.15 K) of 0.00446. It also gave a solubility (mole fraction) (in n-propanol, 290.65 K) of 0.00466, a solubility (mole fraction) (in n-propanol, 293.15 K) of 0.00487 and a solubility (mole fraction) (in n-propanol, 295.65 K) of 0.00509. For the same molecule, the solubility (mole fraction) (in n-propanol, 298.15 K) was 0.0053, the solubility (mole fraction) (in n-propanol, 300.65 K) was 0.00552 and the solubility (mole fraction) (in n-propanol, 303.15 K) was 0.00575. The solubility (mole fraction) (in n-propanol, 305.65 K) was 0.006, the solubility (mole fraction) (in n-propanol, 308.15 K) was 0.00622 and the solubility (mole fraction) (in n-propanol, 310.65 K) was 0.00649. It also gave a solubility (mole fraction) (in n-propanol, 313.15 K) of 0.00678, a solubility (mole fraction) (in n-propanol, 315.65 K) of 0.00705 and a solubility (mole fraction) (in n-propanol, 318.15 K) of 0.00737.

Source: BigSolDB 2.1
